Reference: US20100316628A1, “AGENTS AND METHODS FOR TREATING RESPIRATORY DISORDERS” (THE GENERAL HOSPITAL CORPORATION, priority 2008, published 2010)
Entries after “also recorded” stand apart in the source; their conditions may differ.

Assays:
clear cells [1] = experiment: In vivo luminal microperfusion of cauda epididymidis; quantification of V-ATPase apical membrane accumulation / microvilli elongation in clear cells; set-up: species or system rat; settings: for effect on ANGII-induced V-ATPase apical accumulation and microvilli elongation: 10 min pre-treatment, then ANGII 20 min with agent present, PD123319 1 μM, losartan 1 μM, ODQ 3 μM, L-NAME 100 μM; for extension of V-ATPase-labeled microvilli versus control: mean±SEM
Experimental: (§1) Rats were anesthetized and the cauda epididymidis was luminally perfused in vivo, harvested and fixed in PLP, as described previously (Beaulieu et al., 2005; Pastor-Soler et al., 2003; Wong and Yeung, 1978).
Immunofluorescence labeling was performed on cryostat sections, as described previously (Beaulieu et al., 2005; Pastor-Soler et al., 2003). Primary antibodies, the AGTR2 peptide and secondary antibodies used are listed in supplementary material. Slides were mounted in Vectashield (Vector Labs, Burlingame, Calif.) with or without DAPI. For confocal microscopy, nuclei were stained using TOPRO-3 iodide (Invitrogen, Carlsbad, Calif.). Immunostained sections were examined using a Nikon E800 microscope (Nikon Instruments, Melville, N.Y.). Digital images were acquired with IPLab Spectrum software (Scanalytics, Fairfax, Va.) and imported into Adobe Photoshop. Sections were also examined using a […] confocal microscope (Zeiss Laboratories). Z-series (0.1-μm interval) were imported into Volocity software (Improvision Inc., version 4.1) for 3D reconstruction and final animations were exported as Quicktime movies.
The level of accumulation of V-ATPase in clear cell microvilli was quantified using IPLab software as described previously (Beaulieu et al., 2005; Pastor-Soler et al., 2003). 10 μm sections of microperfused cauda epididymidis were immunostained under identical conditions, and confocal images were acquired using the same parameters. The segmentation procedure of IPLab was used to measure the area of V-ATPase-positive microvilli, which was normalized against the length of apical pole of each cell (Beaulieu et al., 2005; Pastor-Soler et al., 2003). At least three epididymides from different animals were perfused for each condition, and a minimum of 10 cells/tissue were examined for a total of at least 30 cells/condition.

proximal VD = experiment: Detection of proton secretion in cut-open proximal VD with a self-referencing proton-selective electrode; set-up: species or system rat; settings: for proton secretion (effect of the added agent): ANGII 1 μM added to the bath, then concanamycin A 1 μM
Experimental: The proximal VD was cut open to expose the apical surface of the epithelium and anchored onto a custom-made chamber. Proton secretion was measured using a self-referencing proton-selective electrode, as described previously (Beaulieu et al., 2005; Breton et al., 1996; Smith et al., 2007).

clear cells [2] = experiment: Immunogold electron microscopy and quantification of V-ATPase gold labeling in clear cells of perfused epididymis; assay type: in vivo, rat; settings: luminal ANGII 1 μM vs control
Experimental: as §1
Pieces of PLP-fixed epididymis were embedded at −45° C. using HM20 resin (Electron Microscopy Sciences, Hatfield, Pa.) in a Leica EM AFS, and ultrathin sections were cut, as described previously (Da Silva et al., 2007; Pastor-Soler et al., 2003). Sections were immunostained for the V-ATPase A subunit, followed by goat anti-rabbit IgG coupled to 15 nm gold (Ted Pella, Reading, Calif.). Grids were examined in a JEOL 1011 electron microscope. Images were acquired using an AMT digital imaging system.
The number of V-ATPase associated gold particles on the apical membrane and microvilli was counted for each clear cell (Da Silva et al., 2007; Pastor-Soler et al., 2003). To determine the density of V-ATPase molecules along the apical membrane, the number of gold particles was divided by the length of apical membrane, including microvilli, of each cell. This value is referred to as “gold/μm apical membrane”. To determine the relative density of the V-ATPase at the cell surface, the number of gold particles was normalized for the width of the cell, measured at the base of the microvilli (gold/μm cell width).

In the case of CCCCc1nc(Cl)c(CO)n1Cc1ccc(-c2ccccc2-c2nn[nH]n2)cc1 [Losartan], the “effect on ANGII-induced V-ATPase apical accumulation and microvilli elongation” value (clear cells [1]) was “no inhibitory effect”.

For O=c1onc2cnc3ccccc3n12 [ODQ], the “effect on ANGII-induced V-ATPase apical accumulation and microvilli elongation” value (clear cells [1]) was “completely abolished”.

In the case of Cc1cc(Cn2cnc3c2C[C@@H](C(=O)O)N(C(=O)C(c2ccccc2)c2ccccc2)C3)ccc1N(C)C [PD123319], the “effect on ANGII-induced V-ATPase apical accumulation and microvilli elongation” value (clear cells [1]) was “prevented the stimulatory effect of ANGII; also recorded: inhibited the effect of ANGII at both 0.1 and 1 μM concentrations”.

With C/C=C/[C@H]1O[C@@](O)([C@@H](C)[C@H](O)[C@H](C)[C@H]2OC(=O)/C(OC)=C/C(C)=C/[C@@H](C)[C@@H](O)[C@@H](CC)[C@@H](O)[C@H](C)C/C(C)=C/C=C/[C@@H]2OC)C[C@@H](O[C@H]2C[C@@H](O)[C@H](OC(N)=O)[C@@H](C)O2)[C@@H]1C [concanamycin A] the “proton secretion (effect of the added agent)” value (proximal VD) was “markedly inhibited; also recorded: marked inhibition” and the “effect of pre-incubation on the proton secretion response to ANGII” value (proximal VD; pre-incubation of the tissue for 10 min, data not shown) was “prevented the response to ANGII”.

Nc1nc2c(nc(Sc3ccc(Cl)cc3)n2[C@@H]2O[C@@H]3COP(=O)(O)O[C@H]3[C@H]2O)c(=O)[nH]1 [p-cpt-cGMP] was tested, and the “elongation of V-ATPase-rich microvilli compared to control” value (clear cells [1]; 1 mM in luminal perfusate, 20 min) was “significant elongation; also recorded: marked elongation”.

For “angiotensin II (DRVYIHPF; Angiotensin-2; UniProt P01019 25-32, looked up) [ANGII, peptide hormone; agonist of AGTR1 and AGTR2 receptors]”, the “V-ATPase-labeled microvilli seen by immunogold labeling” value (clear cells [2]) was “longer and more numerous V-ATPase-labeled microvilli are detected”, the “density of V-ATPase molecules in microvilli (Gold/μm apical membrane)” value (clear cells [2]; P<0.0005) was “significant increase” and the “total number of V-ATPase molecules located at the cell surface (Gold/μm cell width)” value (clear cells [2]; P<0.0005) was “further amplified compared to control”. For the same compound, the “extension of V-ATPase-labeled microvilli versus control” value (clear cells [1]; ANGII 0.1 μM in luminal perfusate, 20 min) was 141±4%, the “extension of V-ATPase-labeled microvilli versus control” value (clear cells [1]; ANGII 1 μM in luminal perfusate, 20 min) was 153±7% and the “proton secretion (effect of the added agent)” value (proximal VD) was “sustained increase in proton secretion”. For the same compound, the “increase of concanamycin-sensitive proton secretion compared to control” value (proximal VD; ANGII 1 μM, measured 30 min after addition, n=7, P<0.05) was 68%.
